In article PMC9892044, “Synthesis of new diphenyl urea-clubbed imine analogs and its Implications in diabetic management through in vitro and in silico approaches” (Scientific Reports, 2023):

| Structure (SMILES) | melting point [°C] |
| --- | --- |
| CCOc1cccc(/C=N/c2ccccc2NC(=O)Nc2cccc(Cl)c2)c1O [Compound 3a, (E)-1-(3-chlorophenyl)-3-(2-((3-ethoxy-2-hydroxybenzylidene)amino)phenyl) urea] | 218 to 220 |
| CCOc1cccc(/C=N/c2ccccc2NC(=O)Nc2ccc(F)cc2)c1O [Compound 3b, (E)-1-(2-((3-ethoxy-2-hydroxybenzylidene)amino)phenyl)-3-(4-fluorophenyl) urea] | 217 to 219 |
| CCOc1cccc(/C=N/c2ccccc2NC(=O)Nc2ccc3ccccc3c2)c1O [Compound 3d, (E)-1-(2-((3-ethoxy-2-hydroxybenzylidene)amino)phenyl)-3-(naphthalen-2-yl) urea] | 228 to 230 |
| CCOc1cccc(/C=N/c2ccccc2NC(=O)Nc2ccc(OC)cc2)c1O [Compound 3e, (E)-1-(2-((3-ethoxy-2-hydroxybenzylidene)amino)phenyl)-3-(4-methoxyphenyl) urea] | 204 to 206 |
| CCOc1cccc(/C=N/c2ccccc2NC(=O)Nc2ccc(Cl)cc2)c1O [Compound 3f, (E)-1-(4-chlorophenyl)-3-(2-((3-ethoxy-2-hydroxybenzylidene)amino)phenyl) urea] | 218 to 220 |
| CCOc1cccc(/C=N/c2ccccc2NC(=O)Nc2ccccc2C)c1O [Compound 3g, (E)-1-(2-((3-ethoxy-2-hydroxybenzylidene)amino)phenyl)-3-(o-tolyl) urea] | 216 to 218 |
| CCOc1cccc(/C=N/c2ccccc2NC(=O)Nc2cccc(C)c2)c1O [Compound 3h, (E)-1-(2-((3-ethoxy-2-hydroxybenzylidene)amino)phenyl)-3-(m-tolyl) urea] | 203 to 205 |
| CCOc1cccc(/C=N/c2ccccc2NC(=O)Nc2ccc(C)cc2)c1O [Compound 3i, (E)-1-(2-((3-ethoxy-2-hydroxybenzylidene)amino)phenyl)-3-(p-tolyl)urea] | 210 to 212 |
| COc1cccc(/C=N/c2ccccc2NC(=O)Nc2cccc(Cl)c2)c1O [Compound 3l, (E)-1-(3-chlorophenyl)-3-(2-((2-hydroxy-3-methoxybenzylidene)amino)phenyl) urea] | 208 to 210 |
| COc1cccc(/C=N/c2ccccc2NC(=O)Nc2cccc(F)c2)c1O [Compound 3n, (E)-1-(3-fluorophenyl)-3-(2-((2-hydroxy-3-methoxybenzylidene)amino)phenyl) urea] | 200 to 201 |
| COc1cccc(/C=N/c2ccccc2NC(=O)Nc2ccc3ccccc3c2)c1O [Compound 3o, (E)-1-(2-((2-hydroxy-3-methoxybenzylidene)amino)phenyl)-3-(naphthalen-2-yl) urea] | 214 to 216 |
| COc1cccc(/C=N/c2ccccc2NC(=O)Nc2ccc(Cl)cc2)c1O [Compound 3q, (E)-1-(4-chlorophenyl)-3-(2-((2-hydroxy-3-methoxybenzylidene)amino)phenyl) urea] | 218 to 220 |
| COc1cccc(/C=N/c2ccccc2NC(=O)Nc2cccc(C)c2)c1O [Compound 3s, (E)-1-(2-((2-hydroxy-3-methoxybenzylidene)amino)phenyl)-3-(m-tolyl) urea] | 201 to 203 |
| COc1cccc(/C=N/c2ccccc2NC(=O)Nc2ccccc2)c1O [Compound 3u, (E)-1-(2-((2-hydroxy-3-methoxybenzylidene)amino)phenyl)-3-phenylurea] | 188 to 190 |
| COc1cccc(/C=N/c2ccccc2NC(=O)Nc2ccc(C(C)=O)cc2)c1O [Compound 3v, (E)-1-(4-acetylphenyl)-3-(2-((2-hydroxy-3-methoxybenzylidene)amino)phenyl) urea] | 200 to 212 |
| COc1cc(/C=N/c2ccccc2NC(=O)Nc2ccc(Cl)cc2)ccc1O [Compound 3w, (E)-1-(4-chlorophenyl)-3-(2-((4-hydroxy-3-methoxybenzylidene)amino)phenyl) urea] | 219 to 221 |
| COc1cc(/C=N/c2ccccc2NC(=O)Nc2ccccc2C)ccc1O [Compound 3x, (E)-1-(2-((4-hydroxy-3-methoxybenzylidene)amino)phenyl)-3-(o-tolyl) urea] | 200 to 202 |
